From patent US20210220408A1, “ARYL HYDROCARBON RECEPTOR ANTAGONISTS AND METHODS OF USE” (Magenta Therapeutics Inc., priority 2018, published 2021)

Target: T1, aryl hydrocarbon receptor (AHR) (Homo sapiens, UniProt P35869)
T1 sequence (P35869 11-848): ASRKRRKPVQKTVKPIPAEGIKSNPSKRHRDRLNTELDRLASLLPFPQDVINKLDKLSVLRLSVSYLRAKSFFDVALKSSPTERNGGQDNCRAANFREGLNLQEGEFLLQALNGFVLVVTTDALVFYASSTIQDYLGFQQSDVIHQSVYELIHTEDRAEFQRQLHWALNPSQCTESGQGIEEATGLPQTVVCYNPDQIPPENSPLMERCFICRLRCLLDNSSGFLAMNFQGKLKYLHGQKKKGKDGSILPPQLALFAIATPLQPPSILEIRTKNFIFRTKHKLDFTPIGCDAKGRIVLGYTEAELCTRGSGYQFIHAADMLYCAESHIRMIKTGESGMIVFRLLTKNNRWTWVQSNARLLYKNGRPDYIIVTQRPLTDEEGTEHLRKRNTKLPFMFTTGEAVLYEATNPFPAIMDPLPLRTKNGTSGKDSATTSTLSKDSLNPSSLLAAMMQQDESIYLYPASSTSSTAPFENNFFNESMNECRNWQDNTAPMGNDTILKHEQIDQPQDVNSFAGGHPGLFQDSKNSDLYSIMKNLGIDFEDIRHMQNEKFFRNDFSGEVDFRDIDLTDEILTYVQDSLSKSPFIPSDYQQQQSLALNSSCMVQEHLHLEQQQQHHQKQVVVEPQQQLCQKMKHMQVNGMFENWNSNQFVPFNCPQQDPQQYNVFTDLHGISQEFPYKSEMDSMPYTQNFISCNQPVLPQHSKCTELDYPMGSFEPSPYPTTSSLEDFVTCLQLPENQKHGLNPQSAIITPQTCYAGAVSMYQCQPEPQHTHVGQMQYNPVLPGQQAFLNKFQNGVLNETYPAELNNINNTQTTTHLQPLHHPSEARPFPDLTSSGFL
Assay: DRE-Luciferase reporter high-throughput screen (AHR antagonist, VAF347-activated)
From the text: HepG2 hepatocellular carcinoma cells were transfected with a dioxin-response element (DRE) Firefly luciferase reporter construct. Luciferase transcription was activated with the aryl hydrocarbon receptor (AHR) agonist, VAF347. Addition of an AHR antagonist results in inhibition of the luciferase transcription and a loss of signal in the assay.
HepG2, a hepatocellular carcinoma cell line, was transfected with the dioxin-response element Firefly luciferase reporter construct using the TransIT-transfection system. Prior to transfection, HepG2 cells (Sigma) were cultured at 90% confluency in Eagle's Modified Essential Medium (Sigma)+2 mM Glutamine (Sigma), +1^% Non Essential Amino Acids (Sigma)+10% Fetal Bovine Serum (Hyclone) and harvested and counted (Biorad TC20 cell counter). OptilMEM serum-free media and TransIT (Mirus) were mixed for transfection in 150 mm dishes by adding 240 μL Transit to 3.0 mL OptiMEM, vortexing briefly to mix, and incubating at room temperature for 20 minutes. The DNA mixture was prepared by adding 80 μg plasmid (pGudLuc6.1 plasmid, Garrison et al., (1996) Fundam. Appl. Toxicol., 30, 194-203), inverting to mix, and incubating at room temperature for 30 minutes. 30×10^6 HepG2 cells were seeded in 30 mL media and 3.3 mL of the DNA, OptiMEM, and TransIT mixture was added dropwise to the plate. The plate was mixed by rocking and incubated at 37° C./5% CO2 overnight. The next day, cells were harvested by aspirating media, washing once with sterile phosphate buffered saline (PBS, Gibco), trypsinzing with 0.05% Trypsin (Corning) and harvesting cells with culture medium, and freezing with Cell Freezing Media (Gibco) at 5 50×10^6 cells/vial in 1 mL/vial.
Transiently-transfected frozen HepG2 cells with DRE-Luciferase, were thawed in a 37° C. water bath and resuspended in complete media. 4 μL cells at 15,000 cells per well was transferred into the wells of a 1536-well Alphaplate assay plate (PerkinElmer) using TEMPEST liquid dispenser. The plate was centrifuged at 1000 rpm for 1 minute. 30 nL of the controls (1 μM (S)-2-(6-((2-(1H-indol-3-yl)ethyl)amino)-2-(5-fluoropyridin-3-yl)-9H-purin-9-yl)propan-1-ol or 100% DMSO) were transferred to the assay plate using the Pin Tool on BRAVO. 1 μL of VAF347 (15 nM final concentration) in complete media was added to the wells using TEMPEST. The plate was centrifuged at 1000 rpm for 1 minute and incubated at 37° C./5% CO2 overnight. After incubation, the plate was removed from the incubator and brought to room temperature. 2 μL of room temperature Steady-Glo luciferase detection reagent (Promega) was added to the wells with TEMPEST. The plate was centrifuged at 2000 rpm for 1 minute, sealed with clear plastic seal and kept at room temperature for 15 minutes prior to measuring luminescence on ENVISION.
Approximately 166,000 compounds were screened in 132 1536-well plates in the luciferase reporter gene assay at a final concentration of 12 μM. […] Each compound was tested at 0.1 μM, 1.0 μM, and 10 μM in the DRE luciferase assay and Cell Titer Glo cytotoxicity assay (Promega). […] 512 compounds were selected for 10-point dose-response in the AHR luciferase reporter assay and the Cell Titer Glo cytotoxicity assay.

SMILES | IC50 [nM]
CNS(=O)(=O)c1ccc2c(c1)CCN2C(=O)c1ccn(-c2cccc(F)c2)n1 [107A] | 1000 to 2000
O=C(CN1CCCCCC1)Nc1sc2c(c1C(=O)Nc1ccc(Br)cc1)CCC2 [42A] | 1000 to 2000
FC(F)(F)c1ccc(N/N=C/c2ccc(Cl)cc2)nc1 [45B] | 1000 to 2000
COc1ccc(N2CCN(c3cc(C)nn4cnnc34)CC2)cc1 [74A] | > 2000
O=c1ccc2ccc(OCc3ccc(F)cc3Cl)cc2o1 [111B] | 200 to 500
CCN(C(=O)C1CC1)c1nc(-c2ccc(OC)cc2)cs1 [58A] | 1000 to 2000
FCCCSc1nnc(-c2cc3cc4ccccc4nc3s2)o1 [compound 155] | 500 to 1000
Clc1ccc(-c2nc3cc(Br)cnc3[nH]2)cc1 [72B] | < 200
Cn1c(COc2cccc3ccccc23)nc2ccccc21 [67B] | 1000 to 2000
O=C(NCCC1=CCCCC1)c1[nH]nc2c1CCCC2 [109B] | 1000 to 2000
O=C(Nc1cc2ccccc2s1)c1ccccc1 [23B] | 1000 to 2000
COc1ccc(Sc2nccc(N(C)C)c2C#N)cc1 [95A] | > 2000
CCOC(=O)c1ccc(Nc2nc3nonc3[nH]/c2=N\OC(C)=O)cc1 [97B] | 1000 to 2000
Cn1c(CCC(=O)OCC(=O)N2c3ccccc3CCc3ccccc32)nc2ccccc2c1=O [127B] | > 2000
Cn1nc(C2CC2)cc1C(=O)Nc1ccc(I)cc1 [compound 36] | 500 to 1000
Cc1c(COc2ccccc2C#N)noc1-c1ccc(F)cc1 [129A] | 1000 to 2000
Cc1ccc(C(=O)Nc2nc3c(C)cc(C)cc3s2)cc1 [22B] | 1000 to 2000
Fc1ccc(-c2ccc(-c3nnc4n3CCCCC4)s2)cc1 [149A] | > 2000
CCc1cccc2c(C(=O)CSc3nnnn3C)c[nH]c12 [63B] | 1000 to 2000
CCOC(=O)c1sc(NC(=O)c2cn3ccccc3n2)cc1C [compound 40] | < 200
C/C(=N\NC(=O)c1ccco1)c1ccc(Cl)c(Cl)c1 [43B] | > 2000
Cc1cccnc1NC(=O)c1cc2c(ccc3ccccc32)[nH]1 [51A] | 1000 to 2000
N#Cc1ccc(N2CCN(C(=O)Nc3cccc(C(F)(F)F)c3)CC2)nc1 [80A] | 1000 to 2000
COc1ccc(OCc2nc(-c3cccc(F)c3)cs2)cc1 [34B] | 1000 to 2000
CCSc1ccc(-c2ccc(-n3cccn3)cc2)nn1 [91B] | 1000 to 2000
Fc1ccc(-c2cn(-c3ccc4nnc(C(F)(F)F)n4n3)cn2)cc1 [compound 108] | 500 to 1000
Cc1ccc(-c2cc(-c3ccccc3)c3c(N)c(S(C)(=O)=O)sc3n2)cc1 [169A] | 1000 to 2000

SMILES | IC50 [nM]
Cc1ccccc1NC(=O)c1cc(-c2cnc(-c3ccccc3)nc2)cn1C [12B] | 1000 to 2000
COc1cccc(C(=O)Nc2cnc(-c3ccccc3)nc2)c1 [16A] | 1000 to 2000
CS(=O)(=O)c1ccc(-c2csc(-c3cccs3)n2)cc1 [compound 61] | 200 to 500
Brc1ccc(-c2ccc(NC3CCCC3)nn2)cc1 [49B] | 1000 to 2000
Cc1ccc(C(=O)Nc2ccc(Br)c(C)n2)c(Cl)c1 [8B] | 500 to 1000
COc1ccc(N2CCN(c3nc(C(F)(F)F)cs3)CC2)cc1 [compound 111] | 500 to 1000
COc1nc2ccccc2nc1CCC(=O)NC1CCCCCC1 [161A] | > 2000
COc1ccc2cc(C)c3nn(CCNC(=O)c4sc(C)nc4C)c(=O)n3c2c1 [191A] | > 2000
CCC(C)C(=O)Nc1ccc(-c2nnc(-c3ccccc3C)o2)cc1 (centres unmarked) [83B] | 500 to 1000
Cc1cc(C)c2oc(-c3cccc(NC(=O)c4cccnc4)c3C)nc2c1 [15A] | 1000 to 2000
Cc1ccc2nc(C3=C(N)N(CC(C)C)CC3=O)[nH]c2c1 [113A] | 1000 to 2000
Cc1cc(C)n(-c2ccc(NC(=O)c3ccc(OC(F)F)cc3)cc2F)n1 [9A] | > 2000
Cc1cccc(N2CC[C@H]3[C@H]2CCN3c2ncccn2)n1 [115B] | 500 to 1000
CCOC(=O)N1CCN(c2nc(Nc3ccc(C)cc3C)c3nccnc3n2)CC1 [82A] | 1000 to 2000
C1=C(c2ccccc2)CCN(c2ccc3nnnn3n2)C1 [compound 110] | 500 to 1000
Cc1ccc(N)cc1Nc1nccc(-c2cccnc2)n1 [compound 85] | 500 to 1000
CC(=O)N(CCc1ccccc1F)c1nc2ccccc2s1 [108B] | 1000 to 2000
CNC(=O)c1ccsc1NC(=O)c1cccc(Oc2ccccc2)c1 [16B] | 1000 to 2000
Cc1cccc(NC(=O)c2nc(-c3cn(CC4CCCO4)cn3)n3ccccc23)c1 (centres unmarked) [47A] | > 2000
N#Cc1ccc(OCc2ccc3nonc3c2)cc1 [174A] | > 2000
O=C(c1csc(-c2ccc(Cl)cc2)c1)N1CCCCC1 [148A] | 1000 to 2000
COc1ccc(N2CCN(c3nc(OC)nc(OC)n3)CC2)cc1 [68A] | 1000 to 2000
Cc1ccc(-c2nc(CSc3nccn3-c3ccccc3)co2)cc1 [136A] | > 2000
Cn1nc(C(F)(F)F)c2cc(C(=O)Nc3ccc(F)cc3)sc21 [24B] | 500 to 1000
N#Cc1ccc(CSc2ncc3ccccn23)cc1 [115A] | 1000 to 2000
CCCNC(=O)c1cc2cc3ccc(C)cc3nc2o1 [184A] | 1000 to 2000
CCCNC(=O)c1cc2sc(Cl)cc2n1C [180A] | > 2000

SMILES | IC50 [nM]
CSc1cc(CSc2ccc(Cl)cc2)nc(-c2ccccn2)n1 [85A] | 1000 to 2000
Cc1cccc(CSc2nncc3ccccc23)c1 [95B] | 500 to 1000
COc1ccc(C(=O)c2cnc3ncccn23)cc1 [121A] | > 2000
Cc1ccc2[nH]c(SCc3ccccc3C)nc2c1 [64B] | 500 to 1000
CCCCCc1ccc2c(C#N)c(OC)ccc2c1 [117B] | 1000 to 2000
COc1ccnc(Sc2ccc(Cl)cc2)c1C#N [94A] | 1000 to 2000
CCCOc1ccc(-c2csc(N3CCCC3=O)n2)cc1 [compound 54] | 500 to 1000
Clc1ccc(-c2csc(-c3ccc4c(c3)CCO4)n2)s1 [38B] | 500 to 1000
N#Cc1c(N)c(-c2ccc(F)cc2)cn2c1nc1ccccc12 [120B] | 500 to 1000
Cc1csc(-c2ccc(NC(=O)NCc3cc(C)on3)cc2)n1 [62A] | > 2000
CSc1nc2cc(-c3ccc(Cl)cc3)nn2c(N)c1C#N [69B] | < 200
COc1ccc(-c2noc(-c3cscn3)n2)cn1 [137A] | > 2000
COc1ccc(C2=C(C#N)c3nc4ccccc4n3C(=O)C2C#N)cc1 (centres unmarked) [121B] | 500 to 1000
O=C(Nc1ccc2ccccc2c1)c1cccc(NC(=O)C(F)(F)F)c1 [35A] | 1000 to 2000
CCC(=O)Nc1ccc(Cl)c(NC(=O)c2ccc(OC(C)C)cc2)c1 [6B] | 500 to 1000
COC(=O)c1sc(-c2ccc(CC(C)C)cc2)cc1N [146A] | 1000 to 2000
O=C(Nc1ccc(Cl)cc1)c1ccc(-c2ccccn2)s1 [15B] | 500 to 1000
O=C(Nc1ccc(-c2nccs2)cc1)c1ccc(CN2C(=O)CNC2=O)cc1 [10A] | 1000 to 2000
O=C(Nc1nnc(-c2ccc(F)cc2)[nH]1)c1ccc(S(=O)(=O)C(F)F)cc1 [27A] | 1000 to 2000
CCOC(=O)c1cc(-c2ccc(F)cc2)[nH]c1C [100A] | > 2000
Cc1ccc(OCc2nc(N)nc(N(C)C)n2)cc1C [51B] | 1000 to 2000
CC(C)CCNC(=O)c1[nH]nc2c1COc1ccccc1-2 [183A] | > 2000
COc1ccc(C2=Nn3c(nc4ccsc4c3=O)SC2)cc1 [126B] | 1000 to 2000
Cn1c(N)c(C(=O)CSc2ccc(F)cc2)c(=O)n(C)c1=O [195A] | 1000 to 2000
Cc1nn(-c2nc3ccccc3[nH]2)c2c1C(=O)CC(c1cccs1)C2 (centres unmarked) [66B] | 1000 to 2000
CN(C)c1ccc(-c2nnc(-c3cccs3)o2)cc1 [compound 149] | 500 to 1000
